# Laboratory results taken from US12577217B2, “15-PGDH inhibitor” (KYORIN Pharmaceutical Co., Ltd., priority 2019, dated 2026).
# Target: T1, recombinant human 15-PGDH (Homo sapiens, UniProt P15428)
# T1 construct: purchased R&D Systems
# T1 sequence (P15428 1-266): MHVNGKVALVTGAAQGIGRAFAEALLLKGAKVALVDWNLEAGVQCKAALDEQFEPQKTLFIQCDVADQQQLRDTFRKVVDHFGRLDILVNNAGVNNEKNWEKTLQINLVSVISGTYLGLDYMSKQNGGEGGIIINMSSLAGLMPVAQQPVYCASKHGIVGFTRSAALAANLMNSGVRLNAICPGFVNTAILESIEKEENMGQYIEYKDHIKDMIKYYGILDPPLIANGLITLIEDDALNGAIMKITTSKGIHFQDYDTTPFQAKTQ
# Experiment: 15-PGDH enzyme inhibition test
# Type: biochemical
# Settings: 4 nM recombinant human 15-PGDH, 30 μM PGE2, 1 mM NAD+, 60 minutes after starting the reaction; read-out: IC50 Value
# Method in brief: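 Fluorescence (excitation 340 nm, emission 440 nm) measured 60 min after adding 1 mM NAD+ and 30 μM PGE2 to 4 nM recombinant human 15-PGDH, which had stood 12 min at room temperature with compound in pH 8.0 Tris-HCl buffer. Concentration-response curves yield IC50, binned into potency categories.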
row,IC50,SMILES
1,< 10 nM,COc1ccc(CN2Cc3cc(N4CCOc5cc(C(=O)N6CCCCC6)cnc54)ccc3C2=O)cc1 [Example 1-37]
2,< 10 nM,O=C(c1cnc2c(c1)OCCN2c1ccn2c(=O)n(C3CC3)nc2c1)N1CCCCC1 [Example 26-2]
3,< 10 nM,CCN1Cc2cc(N3CCCc4cc(C(=O)N5CCOCC5)cnc43)ccc2C1=O [Example 8-72]
4,> 100 nM,"CC(=O)N(C)C1CCCN(C(=O)c2cnc3c(c2)OCCN3c2ccn3c(=O)n(C)nc3c2)C1 (centres unmarked) [Example 34-1, N-Methyl-N-(1-(4-(2-methyl-3-oxo-2,3-dihydro-[1,2,4]triazolo[4,3-a]pyridin-7-yl)-3,4-dihydro-2H-pyrido[3,2-b][1,4]oxazin-7-carbonyl)piperidin-3-yl)acetamide]"
5,< 10 nM,O=C(c1cnc2c(c1)OCCN2c1ccn2c(=O)n(Cc3ccnc(Cl)c3)nc2c1)N1CCCCC1 [Example 27-2]
6,< 10 nM,Cn1ncc2cc(N3CCCc4cc(C(=O)N5CCC(F)(F)CC5)cnc43)ccc2c1=O [Example 1-189]
7,< 10 nM,O=C(O)c1ccc(N2CCOc3cc(C(=O)N4CCCCC4)ccc32)nc1 [Example 2-21]
8,< 10 nM,CCN1Cc2cc(N3CCCc4cc(C(=O)N5CCC[C@@H](C)C5)cnc43)ccc2C1=O [Example 8-89]
9,< 10 nM,Cn1nnc(-c2ccc(N3CCCc4cc(C(=O)N5CCCCC5)cnc43)cc2)n1 [Example 1-201]
10,< 10 nM,CCN(C)C(=O)c1cnc2c(c1)OCCN2c1ccn2c(=O)n(C)nc2c1 [Example 8-55]
11,10 to 100 nM,CN1C(=O)c2cc(N3CCOc4cc(C(=O)N5CCCCC5)cnc43)ccc2S1(=O)=O [Example 1-164]
12,< 10 nM,CCOCCn1nc2cc(N3CCCc4cc(C(=O)N5CCC[C@H](CF)C5)cnc43)ccn2c1=O [Example 1-117]
13,< 10 nM,CCN1Cc2cc(N3CCCc4cc(C(=O)N5CCC[C@H](F)C5)cnc43)ccc2C1=O [Example 8-84]
14,< 10 nM,N#Cc1ccc(N2CCOc3cc(C(=O)N4CCCCC4)ccc32)cc1 [Example 1-157]
15,10 to 100 nM,CNC(=O)c1cc2ccc(N3CCOc4cc(C(=O)N5CCCCC5)cnc43)cc2n1C [Example 6-11]
16,< 10 nM,Cn1nc2cc(N3CCc4cc(C(=O)N5CCCCC5)ccc43)ccn2c1=O [Example 1-141]
17,< 10 nM,CC1CN(C(=O)c2cnc3c(c2)CCCN3c2ccn3c(=O)n(C)nc3c2)CCC1(F)F (centres unmarked) [Example 8-144]
18,< 10 nM,O=C(O)c1ccc(N2CCc3cc(C(=O)N4CCCCC4)ccc32)cc1 [Example 2-30]
19,< 10 nM,"CCCN(C)C(=O)c1cnc2c(c1)OCCN2c1ccn2c(=O)n(C)nc2c1 [Example 17-1, N-Methyl-4-(2-methyl-3-oxo-2,3-dihydro-[1,2,4]triazolo[4,3-a]pyridin-7-yl)-N-propyl-3,4-dihydro-2H-pyrido[3,2-b][1,4]oxazine-7-carboxamide]"
20,10 to 100 nM,CN(C)C(=O)c1ccc(N2CCCc3cc(C(=O)N4CCCCC4)cnc32)cc1 [Example 6-15]
21,< 10 nM,COc1cc(N2CCOc3cc(C(=O)N4CC=CCC4)ccc32)ccc1C(=O)O [Example 2-14]
22,< 10 nM,CCn1nc2cc(N3CCCc4cc(C(=O)N5CCC5)cnc43)ccn2c1=O [Example 8-147]
23,< 10 nM,CNC(=O)c1ncc(N2CCCc3cc(C(=O)N4CCCCC4)cnc32)cc1F [Example 1-69]
24,< 10 nM,CCN1Cc2cc(N3CCCc4cc(C(=O)N5CC=CCC5)cnc43)ccc2C1=O [Example 8-75]

row,IC50,SMILES
1,< 10 nM,CCn1nc2cc(N3CCOc4cc(C(=O)N5CC=CCC5)cnc43)ccn2c1=O [Example 8-217]
2,< 10 nM,Cn1nc2cc(N3CCOc4cc(C(=O)N5CCC[C@@H](F)C5)cnc43)ccn2c1=O [Example 8-23]
3,< 10 nM,COC(=O)c1ccc(N2CCCc3cc(C(=O)N4CCCCC4)ccc32)cc1 [Example 1-131]
4,< 10 nM,O=C(c1cnc2c(c1)OCCN2c1ccc2cnccc2c1)N1CCCCC1 [Example 1-259]
5,< 10 nM,Cn1nc2cc(N3CCCc4cc(C(=O)N5Cc6ccccc6C5)cnc43)ccn2c1=O [Example 8-131]
6,> 100 nM,CC(C)(C)OC(=O)c1ccc(N2CCOc3cc(C(=O)N4CCC[C@H](F)C4)cnc32)cc1 [Example 8-8]
7,< 10 nM,C[C@@H]1CCCN(C(=O)c2cnc3c(c2)OCCCN3c2ccn3c(=O)n(C)nc3c2)C1 [Example 8-60]
8,< 10 nM,C[C@H]1CCCN(C(=O)c2cnc3c(c2)OCCN3c2ccc3c(c2)CN(C)C3=O)C1 [Example 8-198]
9,< 10 nM,Cn1nc2cc(N3CCOc4cc(C(=O)N5CCCC5)cnc43)ccn2c1=O [Example 8-20]
10,< 10 nM,CN1Cc2cc(N3CCOc4cc(C(=O)N5CCCC5)cnc43)ccc2C1=O [Example 8-185]
11,< 10 nM,CCC1CCCN(C(=O)c2cnc3c(c2)OCCN3c2ccn3c(=O)n(C)nc3c2)C1 (centres unmarked) [Example 8-43]
12,< 10 nM,O=C(c1cnc2c(c1)CCCN2c1ccc2c(=O)[nH]ccc2c1)N1CCCCC1 [Example 1-173]
13,< 10 nM,CCn1nc2cc(N3CCOc4cc(C(=O)N5CCCCC5)cnc43)ccn2c1=O [Example 8-15]
14,< 10 nM,O=C1NCc2cc(N3CCOc4cc(C(=O)N5CCC(F)(F)CC5)cnc43)ccc21 [Example 14-6]
15,< 10 nM,Cn1nc2cc(N3CCOc4cc(C(=O)N5CCC(C)(C)C5)cnc43)ccn2c1=O [Example 8-100]
16,< 10 nM,CCN1Cc2cc(N3CCCc4cc(C(=O)N5CCC[C@@H](CF)C5)cnc43)ccc2C1=O [Example 8-91]
17,10 to 100 nM,Cn1nc2cc(N3CCCc4cc(SC5CCCCC5)cnc43)ccn2c1=O [Example 1-135]
18,< 10 nM,O=C(NCC1COC1)c1ccc(N2CCCc3cc(C(=O)N4CCCCC4)cnc32)cc1F [Example 1-61]
19,< 10 nM,O=C(c1cnc2c(c1)OCCN2c1ccc2nccnc2c1)N1CCCCC1 [Example 1-258]
20,< 10 nM,CCN1Cc2cc(N3CCCc4cc(C(=O)N5CCC[C@@H](C(F)(F)F)C5)cnc43)ccc2C1=O [Example 8-87]
21,< 10 nM,CN1Cc2cc(N3CCOc4cc(C(=O)N5CC=CCC5)cnc43)ccc2C1=O [Example 8-191]
22,< 10 nM,CCn1nc2cc(N3CCCc4cc(C(=O)N5CCCC5)cnc43)ccn2c1=O [Example 8-148]
23,10 to 100 nM,O=C(c1cnc2c(c1)CCCN2c1ccc(F)cc1)N1CCCCC1 [Example 1-214]
24,< 10 nM,CCN1Cc2cc(N3CCCc4cc(C(=O)N5CCC[C@@H](C(F)F)C5)cnc43)ccc2C1=O [Example 8-93]

row,IC50,SMILES
1,< 10 nM,CCN1Cc2cc(N3CCCc4cc(C(=O)N5Cc6ccccc6C5)cnc43)ccc2C1=O [Example 8-77]
2,< 10 nM,COCCN(C)C(=O)c1cnc2c(c1)OCCN2c1ccn2c(=O)n(C)nc2c1 [Example 8-106]
3,10 to 100 nM,Cn1ccc2ccc(N3CCOc4cc(C(=O)N5CCCCC5)cnc43)cc21 [Example 1-91]
4,< 10 nM,COCn1nc2cc(N3CCOc4cc(C(=O)N5CCC[C@H](C)C5)cnc43)ccn2c1=O [Example 1-41]
5,< 10 nM,CCn1nc2cc(N3CCCc4cc(C(=O)N5CCCCC5)cnc43)ccn2c1=O [Example 1-54]
6,< 10 nM,CN1Cc2cc(N3CCOc4cc(C(=O)N5CCCCC5)cnc43)cnc2C1=O [Example 1-101]
7,< 10 nM,C[C@H]1CCCN(C(=O)c2cnc3c(c2)CCCN3c2ccn3c(=O)n(C)nc3c2)C1 [Example 8-135]
8,< 10 nM,O=C(O)c1ccc(N2CCCc3cc(C(=O)N4CCCCC4)ccc32)cc1 [Example 2-26]
9,< 10 nM,CC1CCN(C(=O)c2cnc3c(c2)OCCN3c2ccn3c(=O)n(C)nc3c2)CC1 [Example 8-44]
10,< 10 nM,CCn1nc2cc(N3CCCc4cc(C(=O)N5CCC[C@H](C(F)(F)F)C5)cnc43)ccn2c1=O [Example 8-171]
11,> 100 nM,"Cc1cc(N2CCOc3cc(C(=O)N4CCCCC4)ccc32)n2ncnc2n1 [Example 24-1, (4-(5-Methyl-[1,2,4]triazolo[1,5-a]pyrimidin-7-yl)-3,4-dihydro-2H-benzo[b][1,4]oxazin-7-yl)(piperidin-1-yl)methanone]"
12,< 10 nM,CCOCCn1nc2cc(N3CCCc4cc(C(=O)N5CCC[C@@H](CF)C5)cnc43)ccn2c1=O [Example 1-124]
13,10 to 100 nM,CCn1nc2cc(N3CCCc4cc(C(=O)N5CCCC[C@H]5C)cnc43)ccn2c1=O [Example 8-157]
14,< 10 nM,CCn1nc2cc(N3CCCc4cc(C(=O)N5CCC[C@H](C(F)F)C5)cnc43)ccn2c1=O [Example 8-168]
15,< 10 nM,O=C(O)C1CCC(N2CCOc3cc(C(=O)N4CCCCC4)ccc32)CC1 (centres unmarked) [Example 4-14]
16,10 to 100 nM,CN1Cc2cc(N3CCOc4cc(SC5CCCCC5)cnc43)ccc2C1=O [Example 1-136]
17,< 10 nM,CCN1Cc2cc(N3CCCc4cc(C(=O)N5CCC[C@H](C)C5)cnc43)ccc2C1=O [Example 8-90]
18,< 10 nM,CCn1nc2cc(N3CCCc4cc(C(=O)N5CCC(F)(F)C(C)C5)cnc43)ccn2c1=O (centres unmarked) [Example 8-169]
19,10 to 100 nM,CN1Cc2cc(N3CCOc4cc(S(=O)(=O)C5CCCCC5)cnc43)ccc2C1=O [Example 7-10]
20,10 to 100 nM,O=C(c1cnc2c(c1)CCCN2c1ccc(Cl)cc1)N1CCCCC1 [Example 1-211]
21,< 10 nM,COCCCNC(=O)c1cnc2c(c1)OCCN2c1ccn2c(=O)n(C)nc2c1 [Example 8-107]
22,< 10 nM,O=C(c1cnc2c(c1)OCCN2c1ccn2c(=O)n(Cc3ccnc(Cl)c3)nc2c1)N1CCC(F)(F)CC1 [Example 27-7]
23,> 100 nM,CCn1nc2cc(N3CCOc4cc(C(=O)N5CCN(C(=O)OC(C)(C)C)CC5)cnc43)ccn2c1=O [Example 8-220]
